This is an account of results in patent publication US11572590B2, “Methods for evaluating tumor cell spheroids using 3D microfluidic cell culture device” (Dana-Farber Cancer Institute, Inc., priority 2017, dated 2023).

The target in experiment [1] is T1, off-target kinases (Homo sapiens, UniProt O15146).
T1 sequence (O15146 24-869): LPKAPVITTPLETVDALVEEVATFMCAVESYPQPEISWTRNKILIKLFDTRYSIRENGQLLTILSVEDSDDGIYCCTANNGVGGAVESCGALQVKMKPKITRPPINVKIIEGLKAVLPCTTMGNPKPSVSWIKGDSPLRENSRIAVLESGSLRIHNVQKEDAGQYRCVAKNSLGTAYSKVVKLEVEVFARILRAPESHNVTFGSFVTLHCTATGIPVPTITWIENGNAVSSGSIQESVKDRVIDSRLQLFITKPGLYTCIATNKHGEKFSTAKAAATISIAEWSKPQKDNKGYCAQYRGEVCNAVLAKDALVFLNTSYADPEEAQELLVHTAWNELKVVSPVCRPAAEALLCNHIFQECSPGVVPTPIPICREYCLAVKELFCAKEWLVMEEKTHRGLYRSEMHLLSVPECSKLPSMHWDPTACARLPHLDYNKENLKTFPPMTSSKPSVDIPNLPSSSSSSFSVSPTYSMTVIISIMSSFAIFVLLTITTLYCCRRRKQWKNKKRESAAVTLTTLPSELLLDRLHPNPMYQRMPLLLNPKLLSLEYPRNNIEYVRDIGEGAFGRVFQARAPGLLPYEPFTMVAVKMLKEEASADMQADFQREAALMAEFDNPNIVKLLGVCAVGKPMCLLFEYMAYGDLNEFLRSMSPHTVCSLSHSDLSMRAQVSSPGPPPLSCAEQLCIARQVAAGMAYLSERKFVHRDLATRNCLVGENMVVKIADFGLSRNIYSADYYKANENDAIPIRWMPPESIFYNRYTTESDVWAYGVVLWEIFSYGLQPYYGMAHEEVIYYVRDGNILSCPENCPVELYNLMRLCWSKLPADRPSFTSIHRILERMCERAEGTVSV
The experiment can be described thus: SelectScreen Kinase Profiling, single point inhibition and IC50 for off-target kinases. In kind it is biochemical. Particulars: MUSK, ZLYTE, ATP Km app.

In experiment [2] the target is T2, off-target kinases (Homo sapiens, UniProt Q9NRM7).
T2 sequence (Q9NRM7 1-1088): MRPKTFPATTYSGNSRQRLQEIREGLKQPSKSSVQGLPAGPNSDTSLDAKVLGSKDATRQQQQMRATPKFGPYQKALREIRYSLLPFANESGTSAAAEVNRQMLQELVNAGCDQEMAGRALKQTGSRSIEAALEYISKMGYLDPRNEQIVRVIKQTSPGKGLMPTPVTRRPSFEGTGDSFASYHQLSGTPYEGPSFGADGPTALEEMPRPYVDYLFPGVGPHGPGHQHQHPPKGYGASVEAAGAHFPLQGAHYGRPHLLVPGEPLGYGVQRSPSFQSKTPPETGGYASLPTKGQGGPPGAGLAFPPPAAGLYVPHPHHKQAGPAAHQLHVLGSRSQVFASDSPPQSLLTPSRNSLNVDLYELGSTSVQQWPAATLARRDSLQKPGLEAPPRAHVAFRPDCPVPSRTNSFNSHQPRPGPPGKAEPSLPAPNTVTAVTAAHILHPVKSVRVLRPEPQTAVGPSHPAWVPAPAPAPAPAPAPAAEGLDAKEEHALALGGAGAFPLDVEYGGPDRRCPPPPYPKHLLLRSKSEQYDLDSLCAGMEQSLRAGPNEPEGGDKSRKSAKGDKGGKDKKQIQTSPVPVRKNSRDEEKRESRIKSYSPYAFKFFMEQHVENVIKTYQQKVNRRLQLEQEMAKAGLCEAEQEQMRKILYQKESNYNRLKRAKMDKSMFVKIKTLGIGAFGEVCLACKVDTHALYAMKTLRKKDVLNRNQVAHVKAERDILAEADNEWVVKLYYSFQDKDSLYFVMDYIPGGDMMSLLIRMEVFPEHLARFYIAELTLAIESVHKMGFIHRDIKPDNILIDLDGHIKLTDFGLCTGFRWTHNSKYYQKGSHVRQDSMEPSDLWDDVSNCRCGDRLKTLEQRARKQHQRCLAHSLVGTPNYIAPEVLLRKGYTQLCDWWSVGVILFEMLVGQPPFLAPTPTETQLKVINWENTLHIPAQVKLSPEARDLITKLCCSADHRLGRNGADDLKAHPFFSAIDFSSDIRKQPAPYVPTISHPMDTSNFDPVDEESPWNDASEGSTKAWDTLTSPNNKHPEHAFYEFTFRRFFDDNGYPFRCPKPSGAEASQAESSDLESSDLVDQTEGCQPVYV
Described as above. The format is biochemical. As to conditions: LATS2, LanthaScreen Binding.

Read-outs that look alike come from different tables or passages of the source.

In the case of `N#Cc1cc(-c2ncnc(Nc3ccc(N4CCN(C5COC5)CC4)cc3)n2)ccc1OC1CCOCC1` [Compound 1, 5-(4-((4-(4-(oxetan-3-yl)piperazin-1-yl)phenyl)amino)-1,3,5-triazin-2-yl)-2-((tetrahydro-2H-pyran-4-yl)oxy)benzonitrile], the inhibition is 15% on off-target kinases [1] (read-out: % Inhibition 1); 8% at off-target kinases [1] (read-out: % Inhibition 2); 12% on off-target kinases [1] (read-out: % Inhibition Avg); 23% on off-target kinases [2] (read-out: % Inhibition 1); 25% at off-target kinases [2] (read-out: % Inhibition 2); 24% on off-target kinases [2] (read-out: % Inhibition Avg).
